Paper PMC12326358, “Effect of Quantitative Structural Properties and Drug Formulation in Four Cannabinoids (Cannabidiol, Cannabigerol, Cannabichromene, and Cannabinol) on Their Lymphatic Transport after Enteral Administration in Rats” (Molecular Pharmaceutics, 2025)
Like-named read-outs stand apart in the source and are kept apart here.

Columns and labels:
[1] = Pharmacokinetic studies (oral and intravenous dosing) in jugular vein cannulated rats; conditions: for AUC(0-inf): AUC0-inf; for bioavailability: F0-inf (absolute oral bioavailability)
Experimental: Absolute oral bioavailability and other pharmacokinetic parameters were determined in a series of two-period, crossover studies, where the cannabinoids were administered intravenously in the first period, and orally in the second. Both jugular veins were cannulated (3 Fr polyurethane catheter, Instech Laboratories, Plymouth Meeting, USA). One catheter was used for intravenous dosing, and the second one was used for repetitive blood sampling in order to avoid sampling cannula contamination with highly concentrated intravenous drug solution. The anesthesia was performed using a rapid inhalational induction with isoflurane (IsoFlo, Zoetis, Czech Republic) followed by intramuscular injection of ketamine 100 mg/kg (Narkamon, Bioveta a.s., Czech Republic) and xylazine 5 mg/kg (Rometar, Bioveta a.s., Czech Republic). After a three-day recovery period, the rats were intravenously dosed with the particular cannabinoid (1 mg of CBD, 1.5 mg of the other three cannabinoids in the form of nanoemulsion, volume 100 μL). Systemic blood (100 μL) was drawn at 5, 15, and 30 min and at 1, 2, 4, 6, 8, 10, and 24 h(s) postdose. After a two-day wash-out period, the dosing via oral gavage followed (10 mg of CBD, 15 mg of the other three cannabinoids in the form of nanoemulsion, volume 1 mL). Systemic blood (100 μL) was drawn at 0 (predose), 0.5, 1, 2, 3, 4, 5, 6, 8, 10, and 24 h(s). Blood samples were centrifuged (4500 rpm for 10 min) and serum was extracted and stored in −80 °C until analysis. The laboratory was unaware of animal assignment to particular experimental groups (laboratory blinding).
Serum and lymph concentrations in all studies were dose-normalized to 1 mg/kg prior to further calculations. AUC values were determined using linear trapezoidal rule. Exact actual sampling times were used for this purpose. Scheduled sampling times were used for mean concentration plotting in the graphs. PK-solver add-on for MS Excel was used for all basic pharmacokinetic calculations. GraphPad Prism version 10.2.2 (GraphPad Software, San Diego, CA, USA) was used for all statistical analyses and graph plotting. Unpaired Student’s t test was used to compare pharmacokinetic and lymphatic transport parameters between the experimental groups. Level of significance was set to p < 0.05.
Lymphatic transport parameters were defined and calculated as previously described. , Briefly, absolute bioavailability via lymph (FAL) was defined as percentage of administered drug dose absorbed into the lymph. It was determined directly from lymph volume and drug concentration in lymph duct cannulated rats. Absolute bioavailability via portal vein (FAP) was analogically defined as percentage of administered drug dose reaching the systemic circulation after direct absorption into blood. It was calculated using equation 1 FAP=AUCent/AUCiv where AUCent is the area under the dose-normalized blood concentration–time curve after enteral dosing in lymph duct cannulated (i.e., lymph deprived) rats and AUCiv is the respective parameter in a separate intravenously dosed group. Total absolute bioavailability (F) in lymph duct cannulated rats was calculated as a sum of FAL and FAP. In normal animals with no lymph duct cannulation, F was calculated using standard formula for oral bioavailability: 2 F=AUCpo/AUCiv Relative bioavailability via lymph (FRL) was defined as the percentage of systemically available drug that was absorbed via lymph. It was calculated using the equation 3 FRL=FAL/F

[2] = format: physicochemical; conditions: final nanoemulsion
Experimental: To test pharmacokinetic parameters for various cannabinoids, the self-emulsifying drug delivery system (SEDDS) was selected due to its facile preparation and as it has shown an enhanced absorption profile for CBD.1 However, prior to administration the oil phase was mixed with water forming nanoemulsion to decrease viscosity and facilitate application to rats. […]
formulation is in the paper referred to as nanoemulsion.
In general, the nanoemulsion was prepared as follows. First, the oil phase containing Propylene glycol monocaprylate (PGMC), surfactant Kolliphor EL (CR-EL), co-surfactant and cannabinoid was prepared and thoroughly homogenized. As co-surfactants, we tested three compounds:
Diethylene glycol monoethyl ether (TRSC) or Ethyl alcohol (ETOH) or Propylene glycol (PRGL).
Next, four parts of water with respect to one part of oil (by weight) were added dropwise to the oil mixture at mild stirring. The stability of prepared nanoemulsions (initially without cannabinoids) was evaluated using dynamic light scattering (LS Instruments, Switzerland). […] and unstable samples, characterized by very high turbidity or phase separation, respectively, were not further analyzed. Optimization results are shown in the form of ternary diagrams for three tested co-surfactants (TRSC, ETOH, PRGL) in Fig. S1.
According to the manufacturer, CBD is most soluble in PGMC among other products.2 High solubility was also expected for other cannabinoids, thus PGMC was chosen as a suitable oil-phase base for nanoemulsion formulation in this study. Next, CR-EL was selected as a surfactant capable of forming nanoemulsions with PGMC in a wide range of concentrations (based on previous non-published experiments). To optimize the composition, stability and the size dependence of various emulsion mixtures were investigated for systems containing the aforementioned components and selected co-surfactants – TRSC, ETOH and PRGL (without cannabinoids). According to the […]
with desirable sizes (Fig. S1). Furthermore, TRSC is a proven skin permeation enhancer and solubilizer. Moreover, as shown by Franceschinis et al., TRSC acted as an excellent absorption […]
enhancer for 4,6,4′trimethylangelicin during oral administration. […]
co-surfactant and solubilizer for the final formulation tested in the pharmacokinetic study.
The final composition of nanoemulsion was chosen based on the compromise between the cannabinoids' loading capacity and the used surfactant amount. The final formulation contained 50wt.% of CR-EL, 30wt.% of TRSC and 20wt.% of PGMC. Long-term stability for the optimized formulation was tested for two cannabinoid concentrations – 15 mg/ml and 30 mg/ml. Results are shown in Tab. S1. The size was below 30 nm even after 30 days for all cannabinoids at 15mg/ml […]
Although all formulations were stable over time and to avoid any colloid instability and cannabinoid decomposition, the water phase was added to the oil phase directly before application in pharmacokinetic study.

[3] = rat, in vivo, iv, 1.5 mg, nanoemulsion, rats, serum, dose-normalized to 1 mg/kg, mean ± SD
[4] = rat, in vivo, iv, 1.5 mg, T1/2, nanoemulsion, rats, mean ± SD
[5] = rat, in vivo, po, nanoemulsion, rats, serum, dose-normalized to 1 mg/kg, mean ± SD
[6] = rat, in vivo, po, oil solution, rats, serum, dose-normalized to 1 mg/kg, mean ± SD
[7] = rat, in vivo, po, nanoemulsion, rats, 10 mg CBD, 15 mg others, serum, dose-normalized to 1 mg/kg, mean ± SD
[8] = rat, in vivo, po, oil solution, rats, 10 mg CBD, 15 mg other cannabinoids, serum, dose-normalized to 1 mg/kg, mean ± SD
[9] = rat, in vivo, po, nanoemulsion, rats, mean ± SD
[10] = rat, in vivo, po, oil solution, rats, mean ± SD
[11] = rat, in vivo, po, T1/2, nanoemulsion, rats, mean ± SD
[12] = rat, in vivo, po, T1/2, oil solution, rats, mean ± SD

Compound	Vd ([1]; rat, in vivo, iv, 1.5 mg)	clearance ([1]; rat, in vivo, iv, 1.5 mg)	AUC(0-inf) [1, 3]	Cmax [1, 3]	half-life [1, 4]	AUC(0-inf) [1, 5]	AUC(0-inf) [1, 6]	Cmax [1, 7]	Cmax [1, 8]	bioavailability [1, 9]	bioavailability [1, 10]	half-life [1, 11]	half-life [1, 12]	Tmax [1, 9]	Tmax [1, 10]	DLS, 90° size ([2]; cannabinoid 15 mg/ml, 1 day)	DLS, 90° size ([2]; cannabinoid 15 mg/ml, 30 days)	DLS, 90° size ([2]; cannabinoid 30 mg/ml, 1 day)	DLS, 90° size ([2]; cannabinoid 30 mg/ml, 30 days)	further results
CCCCCc1cc(O)c2c(c1)OC(C)(CCC=C(C)C)C=C2 (centres unmarked) [CBC, cannabichromene]	11 ± 2.2 L/kg	100 mL/min/kg	640 ± 85 ng·h/mL	935 ± 147 ng/mL	2.2 ± 0.4 h	117 ± 33 ng·h/mL	31 ± 23 ng·h/mL	12 ± 2 ng/mL	2.6 ± 1.5 ng/mL	18 ± 5%	34 ± 18%	5.8 ± 1.9 h	13 ± 19 h	3.6 ± 1.9 h	6 ± 1.3 h	25 nm	25 nm	40 nm	34 nm	
C=C(C)[C@@H]1CCC(C)=C[C@H]1c1c(O)cc(CCCCC)cc1O [CBD, cannabidiol]						256 ± 38 ng·h/mL	205 ± 57 ng·h/mL		27 ± 10 ng/mL	45 ± 18%	52 ± 19%	4.4 ± 0.8 h	4.8 ± 0.8 h	3.2 ± 0.9 h	6.8 ± 1.9 h	26 nm	26 nm	200 nm	222 nm	
CCCCCc1cc(O)c(C/C=C(\C)CCC=C(C)C)c(O)c1 [CBG, cannabigerol]	7.3 ± 2.3 L/kg	98.3 mL/min/kg														31 nm	32 nm			AUC(0-inf) ([1]; rat, in vivo, iv, 1.5 mg): 716 ± 136 ng·h/mL; Cmax ([1]; rat, in vivo, iv, 1.5 mg): 1190 ± 286 ng/mL; half-life ([1]; rat, in vivo, iv, 1.5 mg, T1/2): 2.5 ± 1.6 h; T1/2 ([1]; rat, in vivo, po): 5.1 ± 4.1 h; half-life ([1]; rat, in vivo, po, T1/2): 3.1 ± 1.3 h
CCCCCc1cc(O)c2c(c1)OC(C)(C)c1ccc(C)cc1-2 [CBN, cannabinol]	6.5 ± 1.6 L/kg	50 mL/min/kg	1040 ± 212 ng·h/mL	1230 ± 252 ng/mL	5 h	91 ± 19 ng·h/mL	148 ± 57 ng·h/mL	12 ± 3 ng/mL	15.3 ± 4.6 ng/mL	9%	20 ± 7%	3.5 ± 1.1 h	4.2 ± 1.7 h	2.2 ± 0.6 h	6.5 ± 1.2 h	27 nm	27 nm	67 nm	68 nm	T1/2 ([1]; nanoemulsion, IV, rats, 1.5 mg, mean ± SD): 5.3 ± 1.8 h; F0-inf (absolute oral bioavailability) ([1]; nanoemulsion, PO, rats, mean ± SD): 9.2 ± 2.6%
